Biological target: α7 nAChRs (Homo sapiens, UniProt P36544)
Assay: High-throughput calcium flux (FLIPR) assay using IMR-32 cells expressing endogenous α7 nAChRs
Description: (i) High-Throughput Calcium Flux Assays Using Cells Expressing Endogenous α7 nAChRs
Any suitable selective α7 agonist can be used.
IMR-32 neuroblastoma cells (ATCC) were grown to confluency in 162 cm^2 tissue culture flasks in minimum essential media supplemented with 10% FBS and 1 mM sodium puruvate, 0.1 mM non-essential amino acids and 1% antibiotic-antimycotic. The cells were then dissociated using cell dissociation buffer and 40 μl of 3.5×10^5 cells/ml cell suspension was plated (˜15,000 cells/well) into black plates with clear bottom and maintained for 48 hours in a tissue culture incubator at 37° C. under an atmosphere of 5% CO2: 95% air. […] Calcium flux was measured using calcium-3 assay kit (Molecular Devices, Sunnyvale, Calif.) or fluo-4. […] Fluorescence measurements were read simultaneously from all the wells by a Fluorometic Imaging Plate Reader (FLIPR) at an excitation wavelength of 480 nm and an emission wavelength of 520 nm. Baseline fluorescence was measured for the first 10 seconds, at which point 5× concentrations of modulator/test compounds were added to the cell plate and incubated for three minutes. The fluorescence intensity was captured every second for the first 1 minute followed by every 5 seconds for an additional 2 minutes. […]

Chain of α7 nAChRs (P36544 23-502): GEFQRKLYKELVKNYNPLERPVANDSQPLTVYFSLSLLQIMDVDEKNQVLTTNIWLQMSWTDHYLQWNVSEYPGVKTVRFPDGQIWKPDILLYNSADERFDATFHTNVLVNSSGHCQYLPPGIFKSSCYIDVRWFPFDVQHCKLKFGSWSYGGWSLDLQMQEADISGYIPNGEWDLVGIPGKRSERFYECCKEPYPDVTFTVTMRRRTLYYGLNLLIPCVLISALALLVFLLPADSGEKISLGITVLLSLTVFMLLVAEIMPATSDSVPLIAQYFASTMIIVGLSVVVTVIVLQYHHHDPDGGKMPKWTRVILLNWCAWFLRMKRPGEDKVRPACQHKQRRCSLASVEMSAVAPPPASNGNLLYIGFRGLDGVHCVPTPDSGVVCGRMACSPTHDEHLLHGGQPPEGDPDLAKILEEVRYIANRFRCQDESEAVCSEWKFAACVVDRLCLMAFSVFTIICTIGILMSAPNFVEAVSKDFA

SMILES	calcium response, agonist alone (absence of allosteric modulator, FIG. 3)	effect of α7 selective antagonist on the agonist plus modulator calcium response
CN1CC2CN(c3ccc(-c4ccccc4)nn3)CC2C1 (centres unmarked)	did not trigger calcium responses	–
CCN1C[C@]2(COC(=O)c3ccccc3N3C(=O)C[C@H](C)C3=O)CC[C@H](OC)[C@@]34[C@@H]5C[C@H]6[C@H](OC)[C@@H]5[C@](O)(C[C@@H]6OC)[C@@](O)([C@@H](OC)[C@H]23)[C@@H]14 [methyllycaconitine]	–	abolished response

— US8609713B2, “Pyrrole derivatives and their methods of use” (AbbVie Inc., priority 2006, dated 2013)
